Results published in patent US20250099491A1, “PREVENTION OR TREATMENT OF CARDIOVASCULAR DISEASES WITH HIGH PENETRATION PRODRUGS OF ASPIRIN AND OTHER NSAIDS” (Techfields Inc., priority 2022, published 2025).

Experiments:
[1] = following topical spray
Method: Each cohort began with single dose administration of study drug on Day 1 of the cohort's study schedule.
For single dose PK analysis, serial blood samples were collected following the Day 1 dose at the following time points: 0 (pre-dose), 0.25, 0.5, 0.75, 1, 1.5, 2, 2.5, 3, 4, 5, 6, 8, 10, 12, 18, 24, 48, 72, 96 and 120 hours post-dose. For multiple-dose PK analysis, serial blood samples were collected following the last morning dose on Day 12 according to the same schedule used for the single-dose PK analysis. In addition, daily trough PK samples were collected prior to the morning dose on Days 7 through 11.

[2] = system: myocardial infarction in minipigs; experiment: Example 20: myocardial infarction efficacy study in minipigs (circumflex coronary artery thrombosis); format: in vivo, minipig; conditions: twice a day; for infarct volume (myocardial): 28 days after MCA thrombosis
Method: Total 24 male minipigs were used for this study. […] The minipigs were already quarantined and acclimated. Before animal being transferred from holding colony, a physical examination was performed and the acceptability of the animals for the study was evaluated by veterinary. […] [table] […] Under anesthesia, thoracotomy was carried out and the circumflex coronary artery of the heart was exposed. The circumflex coronary artery thrombosis was induced by photochemical reaction. […] Photoirradiation was continued for a 30 min. […] After cutting the femoral artery, thoracotomy was carried out and the heart was removed. […] TTC regent for 5 min. After staining with TTC reagent, the photograph of the heart 5 blocks was taken. All blocks were immersed in 10% formalin neutral buffer solution. The 2nd block appeared large necrotic area was cut sections (thickness: 7-8 μm). Slice was stained with H & E reagent. […] The infarct lesions were defined as a necrotic portion of TTC stained blocks. […] The histopathological alteration (necrosis, inflammation, granulation, etc.) of myocardial infarction was examined using H & E stained slides.

[3] = system: middle cerebral artery (MCA) thrombosis model of monkeys; experiment: Example 19: middle cerebral artery (MCA) thrombosis model of monkeys; conditions: for infarct volume: Day 28 after MCA thrombosis
Method: Aspirin was administered orally by gavage using a nasal catheter with a disposal syringe. The catheter was inserted into the stomach through the mouth. The treatment was once per day of MCA thrombosis (day 0), twice per day for 27 days.
The monkeys that had been fastened for at least 12 h were anesthetized with intramuscular administration of ketamine hydrochloride (20 mg/kg), and placed on an operation-bed. Anesthesia was continued with 1.0% isoflurane in O2 gas until 30 min. The inhalation anesthesia was performed with anesthesia machines (SN23402, Hallowell engineering and manufacturing corporation, USA) and respirators (SN23402, Hallowell engineering and manufacturing corporation, USA), and placed on an operation-bed. During anesthesia, body temperature of the animals (rectal temperature) was controlled between 37.0±0.5° C. by heating mattresses (XMTA-7000, Delixi Electric., Ltd.).
Under anesthesia, the left eye was enucleated using a bipolar coagulation device (Valleylab Force 1C, USA). A craniotomy was then performed supralaterally to the left side of the optic nerve. The next day animals were anesthetized with ketamine hydrochloride (20 mg/kg) and the dura and subarachnoid membrane were opened. MCA thrombosis was induced by photochemical reaction. The proximal part of the main MCA trunk. was irradiated with green light wave length 532 nm achieved by use of a xenon lamp (GL532T3-100FC, Shanghai Laser& Optics Century Col., Ltd.). The irradiation was directed by a 3-mm diameteroptic fiber mounted on a micromanipulator. Irradiation was started and rose bengal 20 mg/kg was injected intravenously. Photoirradiation was continued for a 30 min. The dura was then covered with a moist gelatin sponge.
Neurological deficits (see Table 3) were assessed 1, 3, 5, 7, 14 and 28 days after the onset of MCA thrombosis (day 0) in a blind manner. The neurological deficits was scored on consciousness, sensory system, motor system and skeletal muscle coordination, and the total neurological deficit score was calculated by summing the scores of consciousness, sensory system, motor system and skeletal muscle coordination.
The survival monkeys were deeply anesthetized with pentobarbital sodium (35 mg/kg, i.v.) 28 days after the onset of MCA thrombosis. After cutting the atriums of heart, 200 mL of heparinized physiological saline (10 U/mL) was allowed to perfuse the brain via the common carotid arteries, and followed by perfusion of 200 mL of 10% formalin neutral buffer solution. The whole brain was removed, and then was put in pathology sample preservation packs containing 10% formalin neutral buffer solution. For each brain sample, the coronal sections (thickness: 7-8 μm) per site were prepared at 10 sites at 4-mm intervals. Slices per site were each stained with H & E reagent.
Measurement of cerebral infarct lesions was carried out in a blind manner. The infarct lesions in the ischemic side are defined as a necrotic portion compared with that in the contralateral side. The infarcted area of left cerebral hemisphere (A) in the cross-sections was traced and measured using a computerized image analysis system (image J).
When the infarct size of 2 serial section was made into D and D′, the infarcted volume using the thickness (4 mm) of a section is measured in the following formula:
Total infarcted volume is calculated by summing the infarcted volume of the 10 serial sections.

[4] = system: rats with acute ischemia induced by Middle Cerebral Artery Occlusion (MCAO); experiment: Example 14: acute ischemia induced by middle cerebral artery occlusion (MCAO) in rats; format: in vivo, rat; conditions: for mortalities: deaths of animals in group; for infarct volume: Day 14 after MCAO, TTC staining, mean±SEM
[5] = high dose 30 mg/kg/time transdermal
[6] = low dose 15 mg/kg/time transdermal
[7] = high dose 30 mg/kg/time transdermal, twice a day
[8] = low dose 15 mg/kg/time transdermal, twice a day

CCN(CC)CCOC(=O)c1ccccc1OC(C)=O.Cl [Compound-1]
converted to salicylic acid [1]: ≥ 99%
degeneration of myocardium and myocardial necrosis (histopathology) [2, 5]: slight
infarct volume (myocardial) [2, 5]: 138 mm^3
degeneration of myocardium and myocardial necrosis (histopathology) [2, 6]: slight
infarct volume (myocardial) [2, 6]: 177 mm^3
infarct volume [3, 7]: 988 mm^3
infarct volume [3, 8]: 945 mm^3
Mortality rate [3, 7]: 0/7
gemistocytic astrocytes in the penumbra area [3, 7]: many gemistocytic astrocytes
liquefaction in the infarct area (histopathology) [3, 7]: slight
Mortality rate [3, 8]: 0/5
liquefaction in the infarct area (histopathology) [3, 8]: moderate
neurologic deficits ([3]; low dose (15 mg/kg) and high dose (30 mg/kg) groups, transdermal twice a day): dose-dependently improved
delayed neuronal death in the distant area ([3]; transdermal treatment groups): slightly
mortalities ([4]; high dose 60 mg/kg topical bid): 0 of 25
infarct volume ([4]; low dose 15 mg/kg topical bid 14 days): 32.07%±2.061
neuroprotective effect on brain ischemic injury ([4]; low, middle and high dose groups compared to vehicle group): good neuroprotective effect
neurological deficit scores ([4]; low, middle and high dose groups vs vehicle group): show differences significantly
body weight ([4]; low, middle and high dose groups, Day 5-14, vs vehicle group by t-test): increased
infarct volume ([4]; middle dose 30 mg/kg topical bid 14 days): 27.11%±1.658
mortalities ([4]; middle dose 30 mg/kg topical bid): 0 of 25
